# Assay results as given in US20260317304A1, “TEAD INHIBITORS AND METHODS OF USE” (Sporos BioDiscovery, Inc., priority 2022, published 2026).
# Legend:
# NCI-H226 cells [1] = test: Proliferation and cell viability assay, Cell Titer One; assay type: cell-based, human; settings: Cell Titer One assay, 6 days
# Description: (§1) Cell proliferation of a TEAD dependent NF2-null mesothelioma cell line, NCI-H226 was assayed using two different protocols. Results were confirmed in two different TEAD-non-dependent lung cancer cell lines, H23 and H28, were used as non-responsive controls, as indicated:
# b) Cell Titer One (Promega, #G3582). The effect of the TEAD inhibitors disclosed herein on cell proliferation was also determined using the Promega Substrate Cell Titer Aqueous One Solution Reagent. The TEAD inhibitors were evaluated for the effects on cell proliferation responder (H226) and non-responder negative control cancer cell lines (CAMA1, H28), as well as non-transformed normal human cells (HUVEC, NHDF). Dissociated cells were resuspend in media (depending on cell line, either in DMEM, RPMI, or EMEM all with 10% FBS, with gentamicin as an antibiotic). Cells were seeded at 100 μL/well at 750 cells per well in 96-well plates and allowed to settle and attach. After an incubation of 24 hrs (37° C., 5% CO2, humidified incubator), 100 μL of test compound-containing media was added. A dilution series of 2000× concentrated stock of test compounds was prepared in DMSO, for final concentrations from 0.1 to 10,000 nM. After addition of test compound-containing media, cells were incubated for 6 days at 37° C., 5% CO2, humidified incubators). To measure cell density, 20 μL of Promega Substrate Cell Titer 96 Aqueous One Solution Reagent (Promega, #G3582) to each well was added according to the manufacturer's instructions. Plates were incubated at 37° C. for usually 3-8 hrs, to reach in the control cells (without compound) an OD of 1.5 at 490 nm. The OD was measured using Vmax [Molecular Devices] spectrophotometer plate reader. Media only-wells were used as background controls and cell densities normalized to DMSO vehicle control. EC50 were taken as the concentration achieving 50% of maximal growth inhibition.
# (§2) For IC50 and EC50 data “A” indicates a value of less than 0.2 μM; the symbol “B” indicates a value in the range of from 0.2 μM up to 1 μM; and the symbol “C” indicates a value of greater than 1 μM. ND: no data.
# NCI-H226 cells [2] = test: Proliferation and cell viability assay, CellTiter-Glo 2.0 (CTG); assay type: cell-based, human; settings: 144 hrs
# Description: as §1
# a) CellTiter-Glo® 2.0 (Promega #G9243). The effect of the TEAD inhibitors disclosed herein on cell proliferation was determined in TEAD1-genetically dependent cell line NCI-H226 (responder cell line) and TEAD-independent cell lines (NCI-H23, HEK293T), as non-responder, negative control. Cells were seeded in 96-well plates (Thermo Scientific #167008) in growth media (RPMI-1640, Gibco #61870-010) for NCI-H226 and NCI-H23 or DMEM (Gibco #31966-021, HEK293T) with […] Heat Inactivated Fetal Bovine Serum (Gibco 10500-064) at 800 (NCI-H226 and HEK-293T) or 2000 (NCI-H23) cells per well at 37° C., […], humidified incubator; 24 hours later, fresh growth media containing test compound or DMSO vehicle was added and incubated with the cells for 144 hrs. TEAD inhibitor stocks were made at a 1000× fold excess in DMSO, and a dose response test compound dose range of 10,000 to 0.1 nM was used. Each treatment was carried out in triplicate. After 144 hrs of treatment, relative cell viability numbers were determined using the CellTiter-Glo 2.0 assay following the manufacturer's instructions. Test plates and CellTiter-Glo 2.0 reagent were allowed to equilibrate to room temperature. CellTiter-Glo 2.0 reagent was added at 1:1 reagent to media ratio to the 96-well cell plates, plates were placed on a plate shaker for 2 minutes and then incubated at room temperature for a further 10 minutes to allow complete cell lysis to occur. The mix was then transferred to white, 96-well luminometer assay plates (Greiner Bio One #655075). Luminescence was quantified using a CLARIOStar Plus multi-mode plate reader (BMG Labtech) in luminescence detection mode with the recommended settings (ultra-Glo pre-set: emission 545-50 nm with autofocus and enhanced dynamic range on). Relative cell density was expressed as a function of inhibitor concentration, with respect to DMSO-only control wells. Data where plotted using GraphPad Prism and IC50 values for the biological effect were calculated using the EC50 non-linear fit function using a sigmoidal, 4-parameter logistic, least squares fit with no constraints.
# as §2
# [3] = Homo sapiens, NCI-H226, responder cell line
SMILES,"IC50 (NCI-H226 cells [1]; Homo sapiens, NCI-H226, 144 h)",EC50 (NCI-H226 cells [2]; [3]),EC50 (NCI-H226 cells [2]; responder cell line),IC50 (NCI-H226 cells [1])
"Cn1cnc(-c2cc([C@@]3(C)C(=O)CNC3=O)ccc2Nc2ccc(C(F)(F)F)cc2)c1 (stereo in doubt) [Compound 18, 3-methyl-3-(3-(1-methyl-1H-imidazol-4-yl)-4-((4-(trifluoromethyl)phenyl)amino)phenyl) pyrrolidine-2,4-dione]",,,< 200 nM,
"Cc1nnc(-c2cc([C@@]3(C)CCNC3=O)ccc2Nc2ccc(C(F)(F)F)cc2)o1 (single isomer, unassigned) [Compound 7, 3-methyl-3-(3-(5-methyl-1,3,4-oxadiazol-2-yl)-4-((4-(trifluoromethyl)phenyl)amino)phenyl) pyrrolidin-2-one]",< 200 nM,200 to 1000 nM,,
"Cn1cnc(-c2cc([C@@]3(C)CCNC3=O)ccc2Nc2ccc(C(F)(F)F)cc2)c1 (single isomer, unassigned) [Compound 6, 3-methyl-3-(3-(1-methyl-1H-imidazol-4-yl)-4-((4-(trifluoromethyl)phenyl)amino)phenyl)pyrrolidin-2-one]",,,< 200 nM,200 to 1000 nM
"Cn1cnc(-c2cc(C3(C)C(=O)NCC3O)ccc2Nc2ccc(C(F)(F)F)cc2)c1 (centres unmarked) [Compound 19, 4-hydroxy-3-methyl-3-(3-(1-methyl-1H-imidazol-4-yl)-4-((4-(trifluoromethyl)phenyl)amino)phenyl) pyrrolidin-2-one]",,200 to 1000 nM,,
"CC1(c2ccc(Nc3ccc(C(F)(F)F)cc3)c(-c3cnccn3)c2)CCNC1=O (centres unmarked) [Compound 13, 3-methyl-3-(3-(pyrazin-2-yl)-4-((4-(trifluoromethyl)phenyl)amino)phenyl) pyrrolidin-2-one]",> 1000 nM,< 200 nM,,
"Cn1nnc(-c2cc(C3(C)CCNC3=O)ccc2Nc2ccc(C(F)(F)F)cc2)n1 (racemic) [Compound 11, 3-methyl-3-(3-(2-methyl-2H-tetrazol-5-yl)-4-((4-(trifluoromethyl)phenyl)amino)phenyl) pyrrolidin-2-one]",< 200 nM,< 200 nM,,
"Cn1cnc(-c2cc(C3(C)NC(=O)NC3=O)ccc2Nc2ccc(C(F)(F)F)cc2)c1 (single isomer, unassigned) [Compound 14, 5-methyl-5-(3-(1-methyl-1H-imidazol-4-yl)-4-((4-(trifluoromethyl)phenyl)amino)phenyl)imidazolidine-2,4-dione]",,< 200 nM,,> 1000 nM

# Now from value to compound:
"IC50 (NCI-H226 cells [1]; Homo sapiens, NCI-H226, 144 h)",EC50 (NCI-H226 cells [2]; [3]),EC50 (NCI-H226 cells [2]; responder cell line),IC50 (NCI-H226 cells [1]),SMILES
< 200 nM,< 200 nM,,,"Cn1cnc(-c2cc(CN3CC(=O)NC3=O)ccc2Nc2ccc(C(F)(F)F)cc2)c1 [Compound 4, 1-(3-(1-methyl-1H-imidazol-4-yl)-4-((4-(trifluoromethyl)phenyl)amino)benzyl) imidazolidine-2,4-dione]"
< 200 nM,< 200 nM,,,"Cn1cnc(-c2cc(CN3CCNC3=O)ccc2Nc2ccc(C(F)(F)F)cc2)c1 [Compound 3, 1-(3-(1-methyl-1H-imidazol-4-yl)-4-((4-(trifluoromethyl)phenyl)amino)benzyl)imidazolidin-2-one]"
,< 200 nM,,,"CC(=O)c1ccc(Nc2ccc(C(F)(F)F)cc2)c(-c2cn(C)cn2)c1 [Compound 23, 1-(3-(1-methyl-1H-imidazol-4-yl)-4-((4-(trifluoromethyl)phenyl)amino)phenyl) ethan-1-one]"
,< 200 nM,,,"Cn1cnc(-c2cc(C3(C)CCNC3=O)ccc2Nc2cccc(C(F)(F)F)c2)c1 (centres unmarked) [Compound 22, 3-methyl-3-(3-(1-methyl-1H-imidazol-4-yl)-4-((3-(trifluoromethyl)phenyl)amino)phenyl) pyrrolidin-2-one]"
,< 200 nM,,,"Cn1cnc(-c2cc([C@@]3(C)C(=O)CNC3=O)ccc2Nc2ccc(C(F)(F)F)cc2)c1 (stereo in doubt) [Compound 17, 3-methyl-3-(3-(1-methyl-1H-imidazol-4-yl)-4-((4-(trifluoromethyl)phenyl)amino)phenyl) pyrrolidine-2,4-dione]"
< 200 nM,< 200 nM,,,"Cn1cnc(-c2cc(C3(C)NC(=O)NC3=O)ccc2Nc2ccc(C(F)(F)F)cc2)c1 (racemic) [Compound 9, 5-methyl-5-(3-(1-methyl-1H-imidazol-4-yl)-4-((4-(trifluoromethyl)phenyl)amino)phenyl) imidazolidine-2,4-dione]"
> 1000 nM,< 200 nM,,,"CC1(c2ccc(Nc3ccc(C(F)(F)F)cc3)c(-c3cccnn3)c2)CCNC1=O (centres unmarked) [Compound 12, 3-methyl-3-(3-(pyridazin-3-yl)-4-((4-(trifluoromethyl)phenyl)amino)phenyl) pyrrolidin-2-one]"
,< 200 nM,,,CC1(c2ccc(Nc3ccc(C(F)(F)F)cc3)c(Br)c2)CCNC1=O (centres unmarked) [Compound 24]
,< 200 nM,,,"Cn1cnc(-c2cc(C3(C)C(=O)CNC3=O)ccc2Nc2ccc(C(F)(F)F)cc2)c1 (racemic) [Compound 16, 3-methyl-3-(3-(1-methyl-1H-imidazol-4-yl)-4-((4-(trifluoromethyl)phenyl)amino)phenyl) pyrrolidine-2,4-dione]"
< 200 nM,< 200 nM,,,"CC1(c2ccc(Nc3ccc(C(F)(F)F)cc3)c(-c3ncco3)c2)CCNC1=O (centres unmarked) [Compound 10, 3-methyl-3-(3-(oxazol-2-yl)-4-((4-(trifluoromethyl)phenyl)amino)phenyl) pyrrolidin-2-one]"
200 to 1000 nM,< 200 nM,,,"Cc1nnc(-c2cc(C3(C)CCNC3=O)ccc2Nc2ccc(C(F)(F)F)cc2)o1 (single isomer, unassigned) [Compound 8, 3-methyl-3-(3-(5-methyl-1,3,4-oxadiazol-2-yl)-4-((4-(trifluoromethyl)phenyl)amino)phenyl) pyrrolidin-2-one]"
